Where two headings read alike, the source gives them in different places. Where a SMILES comes first, the peptide text is derived from it. Bridges are numbered along the chain shown (N, C = ends).

This note sets out measurements from US20240108702A1, “Use Of Naturally Occurring Cyclic Peptides For Treatment Of SARS-COV-2 Infection” (The University of Southern California, priority 2021, published 2024).

The conditions of this data set: cynomolgus.

With `CC[C@H](C)[C@@H]1NC(=O)[C@@H]2CSSC[C@H](NC(=O)[C@H](CCCNC(=N)N)NC(=O)[C@@H]3CSSC[C@H](NC1=O)C(=O)N[C@@H]([C@@H](C)O)C(=O)N[C@@H](CCCNC(=N)N)C(=O)NCC(=O)N[C@@H](Cc1ccccc1)C(=O)N3)C(=O)N[C@@H](CC(C)C)C(=O)N[C@H]1CSSC[C@H](NC(=O)[C@H](C(C)C)NC(=O)CNC(=O)[C@H](CCCNC(=N)N)NC(=O)[C@H](CCCNC(=N)N)NC1=O)C(=O)N[C@@H](CCCNC(=N)N)C(=O)N2` [Peptide 1] (cyclo(GFCRCLCRRGVCRCICTR); disulfide 3-16, 5-14, 7-12), the λz runs as follows: (0.3 mg/kg i.v., Day 1, mean) 0.523 h⁻¹; (1 mg/kg i.v., Day 1, mean) 0.251 h⁻¹; (3 mg/kg i.v., Day 1, mean) 0.078 h⁻¹; (5 mg/kg i.v., Day 1, mean) 0.323 h⁻¹; (5 mg/kg/day i.v., Day 10, mean) 0.157 h⁻¹; (10 mg/kg i.v., Day 1, mean) 0.192 h⁻¹. Moreover, the λz reads like this: (10 mg/kg/day i.v., Day 10, mean) 0.120 h⁻¹; (15 mg/kg i.v., Day 1, mean) 0.149 h⁻¹; (15 mg/kg/day i.v., Day 4, mean) 0.072 h⁻¹; (15 mg/kg/day i.v., Day 7, mean) 0.071 h⁻¹; (15 mg/kg/day i.v., Day 10, mean) 0.078 h⁻¹. The “accumulation, mean AUCτ Day 10 vs mean AUC0-∞ Day 1” value is reported as “approximately 1.4 fold” (5 mg/kg) and ~1.5 fold (10 mg/kg). Also, the “time plasma concentrations detectable post end of infusion” value (single dose of 0.3 or 1 mg/kg) is on record as “up to 12 h”.
